{"source": "patent US20200157144A1", "about": "“ANTIMICROBIAL PEPTIDOMIMETICS” (priority 2017, published 2020)", "experiment_in_all_cases": "microbe, parasite or virus in culture", "key": {"[1]": {"system": "Mupirocin-resistant MRSA ATCC-BAA-1556", "assay_type": "cell-based, Staphylococcus aureus", "method_in_brief": "(§1)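 OD600 read-out after overnight shaking at 35° C. Cation-adjusted MH2 broth, inoculum ~1×10^6 CFU/mL, compounds 100–0.195 μM (2-fold, duplicates). MIC = lowest μM concentration with no growth, per CLSI microdilution.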"}, "[2]": {"system": "Mupirocin-resistant MRSA ATCC-BAA-1708", "assay_type": "cell-based, Staphylococcus aureus", "conditions": "ATCC-BAA-1708; read-out: MIC", "method_in_brief": "as §1"}, "[3]": {"system": "Mupirocin-resistant MRSA ATCC-BAA-1750 (USA200)", "assay_type": "cell-based, Staphylococcus aureus", "conditions": "ATCC-BAA-1750; read-out: MIC", "method_in_brief": "as §1"}, "[4]": {"system": "Mupirocin-susceptible MRSA ATCC-33592 (ST239)", "assay_type": "cell-based, Staphylococcus aureus", "conditions": "ATCC-33592; read-out: MIC", "method_in_brief": "as §1"}, "[5]": {"system": "Mupirocin-susceptible MRSA ATCC-700699 (VISA)", "assay_type": "cell-based, Staphylococcus aureus", "conditions": "ATCC-700699; read-out: MIC", "method_in_brief": "as §1"}, "[6]": {"system": "Mupirocin-susceptible MRSA ATCC-BAA-1681 (USA100)", "assay_type": "cell-based, Staphylococcus aureus", "conditions": "ATCC-BAA-1681; read-out: MIC", "method_in_brief": "as §1"}, "[7]": {"system": "Mupirocin-susceptible MRSA ATCC-BAA-1707 (USA400)", "assay_type": "cell-based, Staphylococcus aureus", "conditions": "ATCC-BAA-1707; read-out: MIC", "method_in_brief": "as §1"}, "[8]": {"system": "Mupirocin-susceptible MRSA ATCC-BAA-1754 (ST45)", "assay_type": "cell-based, Staphylococcus aureus", "conditions": "ATCC-BAA-1754; read-out: MIC", "method_in_brief": "as §1"}, "[9]": {"system": "Mupirocin-susceptible MRSA ATCC-BAA-1756 (USA300)", "assay_type": "cell-based, Staphylococcus aureus", "conditions": "ATCC-BAA-1756; read-out: MIC", "method_in_brief": "as §1"}, "[10]": {"system": "Mupirocin-susceptible MRSA ATCC-BAA-2762 (EMRSA15, ST22)", "assay_type": "cell-based, Staphylococcus aureus", "conditions": "ATCC-BAA-2762; read-out: MIC", "method_in_brief": "as §1"}, "[11]": {"system": "Staphylococcus aureus ATCC 19636", "assay_type": "cell-based", "conditions": "ATCC 19636", "description": "(§2) The antibacterial potency of Compound 34 was measured using the in vitro broth microdilution assay under assay conditions described by the Clinical and Laboratory Standards Institute. […] The test substance was dissolved in 100% DMSO (unless stated below), suspended completely by sonication or vortexing, diluted by 2-fold serial titrations in the same vehicle, for a total of 10 test concentrations (final concentrations: 100, 50, 25, 12.5, 6.25, 3.125, 1.56, 0.78, 0.39, 0.2 μM). A 4 μL aliquot of each dilution was added to 196 μL of broth medium seeded with the organism suspension in wells of a 96 well plate (bacterial count: 2-8×10^5 colony forming units/mL final). The final volume was 200 μL in each well and the final DMSO concentration was 2 percent. The incubation time is either 1 or 2 days at 36° C. All strains tested underwent aerobic respiration, except for ATCC BAA-1805 and ATCC 29399. Following incubation, the test plates were visually examined and wells were scored for growth or complete growth inhibition to define the minimum inhibitory concentration. Each test substance was evaluated in duplicate and the results below are the duplicate test values."}, "[12]": {"system": "Staphylococcus epidermidis ATCC 12228", "assay_type": "cell-based", "conditions": "ATCC 12228", "description": "as §2"}, "[13]": {"system": "Enterococcus faecalis ATCC 51299", "assay_type": "cell-based", "conditions": "ATCC 51299", "description": "as §2, with “values. Vehicle-control and an active reference agent were used as blank and positive controls, respectively.” for “values.”"}, "[14]": {"system": "Enterococcus faecium ATCC BAA-2320", "assay_type": "cell-based", "conditions": "ATCC BAA-2320", "description": "as §2, with “values. Vehicle-control and an active reference agent were used as blank and positive controls, respectively.” for “values.”"}, "[15]": {"system": "Propionibacterium acnes ATCC 29399", "assay_type": "cell-based", "conditions": "ATCC 29399", "description": "as §2, with “values. Vehicle-control and an active reference agent were used as blank and positive controls, respectively.” for “values.”"}}, "note": "Square brackets hold non-standard residues; d marks the D form. Peptide text beside a SMILES is read from it. dBip(4'-Cl) = N[C@H](Cc1ccc(-c2ccc(Cl)cc2)cc1)C(=O)O", "data": [{"smiles": "N=C(N)NCCC[C@@H](NC(=O)[C@@H](Cc1ccc(-c2ccc(Cl)cc2)cc1)NC(=O)[C@@H](CCCNC(=N)N)NC(=O)[C@H](N)Cc1ccc(-c2ccc(Cl)cc2)cc1)C(N)=O", "note": "[Compound 34] (H-[dBip(4'-Cl)][dR][dBip(4'-Cl)][dR]-NH2)", "values": [{"measurement": "MIC", "setting": "[1]; Mupirocin-resistant MRSA ATCC-BAA-1556, cation-adjusted MH2 broth, overnight 35° C., OD600, read-out: MIC", "result": 3.125, "unit": "µM"}, {"measurement": "improvement of bioactivity (lower MIC values) as compared to Compound 2", "setting": "[1]; against Mupirocin-resistant MRSA strains", "result": "about 4 fold"}, {"measurement": "MIC", "setting": "[2]", "result": 1.56, "unit": "µM"}, {"measurement": "MIC", "setting": "[3]", "result": 1.56, "unit": "µM"}, {"measurement": "MIC", "setting": "[4]", "result": 3.125, "unit": "µM"}, {"measurement": "MIC", "setting": "[5]", "result": 3.125, "unit": "µM"}, {"measurement": "MIC", "setting": "[6]", "result": 3.125, "unit": "µM"}, {"measurement": "MIC", "setting": "[7]", "result": 3.125, "unit": "µM"}, {"measurement": "MIC", "setting": "[8]", "result": 3.125, "unit": "µM"}, {"measurement": "MIC", "setting": "[9]", "result": 1.56, "unit": "µM"}, {"measurement": "MIC", "setting": "[10]", "result": 3.125, "unit": "µM"}, {"measurement": "MIC", "setting": "[11]", "result": 3.13, "unit": "µM"}, {"measurement": "MIC", "setting": "[12]", "result": 3.13, "unit": "µM"}, {"measurement": "MIC", "setting": "[13]", "result": 3.13, "unit": "µM"}, {"measurement": "MIC", "setting": "[14]", "result": 1.56, "unit": "µM"}, {"measurement": "MIC", "setting": "[15]", "result": 1.56, "unit": "µM"}]}]}
